The results in this text go back to patent US12459951B2, “Compounds that interact with RAS superfamily proteins for treatment of cancers, inflammatory diseases, rasopathies, and fibrotic disease” (SHY Therapeutics, LLC, priority 2022, dated 2025).

Structures can show the parent of a compound that is named as a salt.

This test deals with Smad2/Smad3 phosphorylation. Description: Phospho-Smad2/3 Inhibition Assay (western blot), Panc-1. Type of test: cell-based, human. To be noted: at 10 μM, Panc-1 pancreatic cancer cell line; starred symbols = activation. How it is done:
Protocol for Phospho-Smad2/3 Inhibition Assay
This assay is referred to as the “Phospho-Smad2/3 Inhibition Assay” throughout this application.
Cell lines: Human tumor-derived pancreatic cancer cell line Panc-1 (expressing KRas G12D mutant) and mouse muscle myoblast C2C12 were purchased from American Type Culture Collection and grown in complete DMEM-High Glucose, supplemented with penicillin (100 U/mL), streptomycin (100 μg/mL), and 10% heat-inactivated FBS at 37° C. in a humidified incubator with 5% CO2.
Method: Cells were plated at 350000 cells/well density in a 12-well plate, allowed 3 hours to adhere to the plate, then starved in the appropriate medium in the presence of 0.5% FBS overnight. The small molecules to be tested were added to the cells in the final concentration of 10 μM in the presence of 0.3% DMSO for 3 hours incubation at 37° C. For IC50 value determination, serial dilutions of compounds were added to cells under the same conditions. Next, Panc-1 cells were stimulated with 10 ng/ml TGF-b1 for 1 hour, and C2C12 cells were stimulated with 10 ng/ml TGF-b1 for 20 minutes (recombinant human TGF-b1, R&D Systems). After stimulation cells were lysed with lysis buffer containing 1% Triton X-100, EDTA, and Halt™ Protease & Phosphatase Inhibitor Cocktail (Thermo Scientific). Protein concentration was assessed by BCA protein assay (Thermo Scientific). Phosphorylation level of Smad2/Smad3 was determined by western blot.
Western blot protocol: Equal amounts of protein (15-50 μg) were separated by SDS-PAGE and transferred to nitrocellulose membranes (Invitrogen by Thermo Fisher Scientific). The membrane was stained with Ponceau S Stain (Boston BioProducts) to verify uniform protein loading. Membranes were blocked with 10% milk and phosphorylation levels of Smad2/Smad3 were assessed by incubating overnight at 4° C. with the following antibodies: Phospho-Smad2 (Ser465/467) and Phosph-Smad3 (Ser423/425), both from Cell Signaling Technology. Then the membranes were incubated with HRP-conjugated secondary antibody (Jackson Immunoresearch, West Grove, PA). Bands were incubated in Amersham ECL Prime Western Blotting Detection Reagent (GE Healthcare) and visualized using the ChemiDoc MP imaging system (Bio-Rad).
Consider `COc1cnc(Nc2nc(-c3nccn3C)nn3cc(-c4ccn(C)n4)c(C)c23)cn1` [Compound 110, N-(5-Methoxypyrazin-2-yl)-5-methyl-2-(1-methyl-1H-imidazol-2-yl)-6-(1-methyl-1H-pyrazol-3-yl)pyrrolo[2,1-f][1,2,4]triazin-4-amine], for which the “% inh of Smad2/3 phosphorylation in Panc-1” value (“% inh” for short) is listed as “A* (A* = 1-25% activation)”.

For the compound `Cc1c(-c2ccn(C3CC3)n2)cn2nc(-c3nccn3C)nc(Nc3cc(OCCCO)ccn3)c12` [Compound 149, 3-((2-((6-(1-Cyclopropyl-1H-pyrazol-3-yl)-5-methyl-2-(1-methyl-1H-imidazol-2-yl)pyrrolo[2,1-f][1,2,4]triazin-4-yl)amino)pyridin-4-yl)oxy)propan-1-ol], the “% inh” value is reported as “A (A = 1-25% inhibition)”.

For the compound `Cc1c(-c2ccn(C(C)C)n2)cn2nc(-c3nccn3C)nc(Nc3cc(OCCO)ncn3)c12` [Compound 97, 2-((6-((6-(1-Isopropyl-1H-pyrazol-3-yl)-5-methyl-2-(1-methyl-1H-imidazol-2-yl)pyrrolo[2,1-f][1,2,4]triazin-4-yl)amino)pyrimidin-4-yl)oxy) ethan-1-ol], the “% inh” value is “D (D = 76-100% inhibition)”.

Regarding `CO[C@H]1CC[C@@H](Nc2nc(-c3ccccn3)nn3cc(-c4ccn(C(C)C)n4)c(C)c23)C1` (racemic) [Compound 9, rac 6-(1-Isopropyl-1H-pyrazol-3-yl)-N-((1R,3S)-3-methoxycyclopentyl)-5-methyl-2-(pyridin-2-yl)pyrrolo[2,1-f][1,2,4]triazin-4-amine], the “% inh” value is given as 0 (0 = 0% inhibition).

As for `Cc1c(-c2ccn(C)n2)cn2nc(-c3nccn3C)nc(Cl)c12` [Compound 99, 4-Chloro-5-methyl-2-(1-methyl-1H-imidazol-2-yl)-6-(1-methyl-1H-pyrazol-3-yl)pyrrolo[2,1-f][1,2,4]triazine], the “% inh” value is “D (D = 76-100% inhibition)”.

`Cc1c(-c2ccn(C(C)C)n2)cn2nc(-c3nccn3C)nc(Nc3cc(OCCN(C)C)ncn3)c12` [Compound 123, N-(6-(2-(Dimethylamino)ethoxy)pyrimidin-4-yl)-6-(1-isopropyl-1H-pyrazol-3-yl)-5-methyl-2-(1-methyl-1H-imidazol-2-yl)pyrrolo[2,1-f][1,2,4]triazin-4-amine]: the “% inh” value was “B (B = 26-45% inhibition)”.

For `COc1cc(-c2cn3nc(-c4nccn4C)nc(N[C@@H]4CC[C@@H](OC)C4)c3c2C)ccn1` (racemic) [Compound 163, rac N-((1R,3R)-3-Methoxycyclopentyl)-6-(2-methoxypyridin-4-yl)-5-methyl-2-(1-methyl-1H-imidazol-2-yl)pyrrolo[2,1-f][1,2,4]triazin-4-amine], the “% inh” value is listed as “B (B = 26-45% inhibition)”.

With `Cc1c(-c2ccn(C(C)C)n2)cn2nc(-c3nccn3C)nc(Nc3nccc(OCCO)n3)c12` [Compound 121, 2-((2-((6-(1-Isopropyl-1H-pyrazol-3-yl)-5-methyl-2-(1-methyl-1H-imidazol-2-yl)pyrrolo[2,1-f][1,2,4]triazin-4-yl)amino)pyrimidin-4-yl)oxy)ethan-1-ol], the “% inh” value is given as “A (A = 1-25% inhibition)”.

Take `COCCO[C@H]1C[C@H](Nc2nc(-c3nccn3C)nn3cc(-c4ccn(C)n4)c(C)c23)C1` [Compound 130, N-((1r,3r)-3-(2-Methoxyethoxy)cyclobutyl)-5-methyl-2-(1-methyl-1H-imidazol-2-yl)-6-(1-methyl-1H-pyrazol-3-yl)pyrrolo[2,1-f][1,2,4]triazin-4-amine]: the “% inh” value is given as “C (C = 46-75% inhibition)”.

As to `Cc1c(-c2ccn(C(C)C)n2)cn2nc(-c3nccn3C)nc(Nc3nccc(OCCN(C)C)n3)c12` [Compound 96, N-(4-(2-(Dimethylamino)ethoxy)pyrimidin-2-yl)-6-(1-isopropyl-1H-pyrazol-3-yl)-5-methyl-2-(1-methyl-1H-imidazol-2-yl)pyrrolo[2,1-f][1,2,4]triazin-4-amine], the “% inh” value was “D (D = 76-100% inhibition)”.

With `Cc1c(-c2ccn(C)n2)cn2nc(-c3nccn3C)nc(Nc3cn(C(C)C)nn3)c12` [Compound 109, N-(1-Isopropyl-1H-1,2,3-triazol-4-yl)-5-methyl-2-(1-methyl-1H-imidazol-2-yl)-6-(1-methyl-1H-pyrazol-3-yl)pyrrolo[2,1-f][1,2,4]triazin-4-amine], the “% inh” value is “D* (D* = 76-100% activation)”.

In the case of `COc1cnc(Nc2nc(-c3nccn3C)nn3cc(-c4ccn(C)n4)c(C)c23)nc1.Cl` [Compound 117, N-(5-Methoxypyrimidin-2-yl)-5-methyl-2-(1-methyl-1H-imidazol-2-yl)-6-(1-methyl-1H-pyrazol-3-yl)pyrrolo[2,1-f][1,2,4]triazin-4-amine hydrochloride salt], the “% inh” value is recorded as “A (A = 1-25% inhibition)”.

As to `CO[C@H]1C[C@H](Nc2nc(-c3nccn3C)nn3cc(-c4cccnc4)c(C)c23)C1` [Compound 151, N-((1r,3r)-3-Methoxycyclobutyl)-5-methyl-2-(1-methyl-1H-imidazol-2-yl)-6-(pyridin-3-yl)pyrrolo[2,1-f][1,2,4]triazin-4-amine], the “% inh” value is listed as “A (A = 1-25% inhibition)”.

As for `CO[C@H]1C[C@H](Nc2nc(-c3nccn3C)nn3cc(-c4ccn(C)n4)c(C)c23)C1` [Compound 103, N-((1r,3r)-3-Methoxycyclobutyl)-5-methyl-2-(1-methyl-1H-imidazol-2-yl)-6-(1-methyl-1H-pyrazol-3-yl)pyrrolo[2,1-f][1,2,4]triazin-4-amine hydrochloride salt], the “% inh” value was “C* (C* = 46-75% activation)”.

For `Cc1c(-c2ccn(C)n2)cn2nc(-c3nccn3C)nc(Nc3ccn(C4CC4)n3)c12` [Compound 111, N-(1-Cyclopropyl-1H-pyrazol-3-yl)-5-methyl-2-(1-methyl-1H-imidazol-2-yl)-6-(1-methyl-1H-pyrazol-3-yl)pyrrolo[2,1-f][1,2,4]triazin-4-amine], the “% inh” value is “D* (D* = 76-100% activation)”.

Regarding `Cc1c(-c2ccn(C3CC3)n2)cn2nc(-c3nccn3C)nc(Nc3cc(O)ccn3)c12` [Compound 150, 2-((6-(1-Cyclopropyl-1H-pyrazol-3-yl)-5-methyl-2-(1-methyl-1H-imidazol-2-yl)pyrrolo[2,1-f][1,2,4]triazin-4-yl)amino)pyridin-4-ol], the “% inh” value is given as “A (A = 1-25% inhibition)”.

`Cc1c(-c2ccn(C(C)C)n2)cn2nc(-c3ccccn3)nc(O)c12` [Compound 8, 6-(1-Isopropyl-1H-pyrazol-3-yl)-5-methyl-2-(pyridin-2-yl)pyrrolo[2,1-f][1,2,4]triazin-4-ol]: the “% inh” value was 0 (0 = 0% inhibition).

As for `COc1cc(Nc2nc(-c3nccn3C)nn3cc(-c4ccn(C5CC5)n4)c(C)c23)ncn1` [Compound 135, 6-(1-Cyclopropyl-1H-pyrazol-3-yl)-N-(6-methoxypyrimidin-4-yl)-5-methyl-2-(1-methyl-1H-imidazol-2-yl)pyrrolo[2,1-f][1,2,4]triazin-4-amine], the “% inh” value is on record as “A* (A* = 1-25% activation)”.
